Source: ChEMBL document CHEMBL1139066, “Analogues of 2-crotonyloxymethyl-(4R,5R,6R)-4,5,6-trihydroxycyclohex-2-enone (COTC) with anti-tumor properties” (Bioorg Med Chem Lett, 2007)

Experiments:
A549 = test: Cytotoxicity against human A549 cells by MTT assay; type: functional, cell-based
NCI-H460 = test: Cytotoxicity against human H460 cells by MTT assay; type: functional, cell-based

| Structure (SMILES) | IC50 (A549) [µM] | IC50 (NCI-H460) [µM] |
| --- | --- | --- |
| C/C=C/C(=O)OCC1=C[C@@H](O)[C@H](O)CC1=O | 147 | 158 |
| C/C=C/C(=O)OCC1=C[C@H]2O[C@](C)(OC)[C@@](C)(OC)O[C@@H]2CC1=O | 32 | 60 |
| C/C=C/C(=O)OCC1=C[C@H]2O[C@](C)(OC)[C@@](C)(OC)O[C@@H]2[C@H](F)C1=O | 31 | 43 |
| C/C=C/C(=O)OCC1=CC(O)CCC1=O (configuration not stated) | 24 | 10 |
| C/C=C/C(=O)OCC1=C[C@@H](O)[C@H](O)[C@H](F)C1=O | 164 | > 200 |
| C/C=C/C(=O)OCC1=CCCCC1=O | 55 | 40 |
